What was measured:
[1] = Solubility in soybean oil; assay type: physicochemical
Excerpt: Determination of the Solubility of the Compounds of the Invention in Soybean Oil
The sample of the compound is then reweighed, the difference between the initial and final weights corresponding to the weight of the compound in solution.

[2] = tested on: Southern Armyworm [Spodoptera eridania (Cramer)]; assay: whole plant or invertebrate; assay type: in vivo; conditions: for mortality at 10 ppm / mortality at 100 ppm / mortality at 1000 ppm: 48 h, read-out: % kill, Southern Armyworm 3rd Instar; for pest or weed control at 1000 µg/mL: 168 h, second leaf, 7 days from original treatment, read-out: % kill, Southern Armyworm 3rd Instar, 7 days (residual activity)
Method: Southern Armyworm [Spodoptera eridania ([…] bean plant with just the primary leaves expanded to 7.6 to 10 cm is dipped for 3 seconds with agitation in a 1000 ppm solution and set in a hood to dry. […] The dish is covered and held at 26.7° C. After 2 days mortality counts and estimates of the amount of feeding are made. Compounds showing partial kill and/or inhibition of feeding are held for an extra day for further observations. All compounds showing activity as defined above are retested, using the second leaf on the bean plant, after an interval of 7 days from original treatment, as an assay of residual activity. Compounds rated active (8 or 9) are further tested at reduced concentrations in 50% acetone:50% water.

[3] = tested on: Cabbage Looper [Trichoplusia ni (Hubner)]; assay: Insecticide test, cabbage looper 3rd instar; assay type: in vivo; conditions: 48 h, 2 days, 26.7° C., read-out: % kill, Cabbage Looper 3rd Instar
Method: Cabbage Looper [Trichoplusia ni (Hubner)]
A primary leaf of a cotton plant is dipped in the test solution and agitated for 3 seconds. It is then set in a hood to dry. Following this, the leaf is placed in a 10 cm petri dish containing a moist filter paper at the bottom and 10 third-instar loopers. The dish is covered and held at 26.7° C. After 2 days, mortality counts and estimates of feeding damage are recorded. Those materials showing partial kill and/or inhibition of feeding are held for another day for further observations.
(§1) Compounds rated active (8 or 9) are further tested at reduced concentrations in 50% acetone:50% water.

[4] = tested on: Tobacco Budworm [Heliothis virescens (Fabricius)]; assay: Insecticide test, tobacco budworm 1st instar (eggs / newly hatched larvae on dipped cotton leaf); assay type: in vivo; conditions: 72 h, read-out: % kill, Tobacco Budworm 1st Instar
Method: Tobacco Budworm [Heliothis virescens (Fabricius)]
A cotton plant with 2 true leaves expanded is dipped for 3 seconds with agitation in a 300 ppm solution. A 1.25 to 2 cm square of cheesecloth with about 50 to 100 budworm eggs 0-24 hours old is also dipped in the test solution and placed on one leaf to dry. The leaf with the treated budworm eggs is removed from the plant and placed in a 236.6 ml (8-oz) Dixie cup with a wet 5 cm piece of dental wick and covered with a lid. The other leaf is placed in a similar cup with a wick and a piece of cheesecloth infested with 50-100 newly hatched larvae is added before covering the cup with a lid. After 3 days at 26.7° C., observations of egg hatch are made as well as kill of newly hatched larvae, any inhibition of feeding, or interference of any sort with normal development.
as §1

[5] = tested on: Tobacco Budworm [Heliothis virescens (Fabricius)]; assay: whole plant or invertebrate; assay type: in vivo; conditions: 72 h, read-out: % kill, Tobacco Budworm 3rd Instar
Method: Third Instar Three cotton plants with just expanded cotyledons are dipped in a 1000 ppm solution, and placed in a hood to dry. When dry, each cotyledon is cut in half and each half is placed in one of ten 29.6 ml plastic medicine cups containing a 1.25 cm dental wick saturated with water, and one third instar budworm larva is added. The cup is capped and held for 3 days at 26.7° C., after which mortality counts are made. Compounds rated active (8 or 9) are further tested at reduced concentrations in 50% acetone:50% water.

Structure (SMILES)	Solubility in Soybean oil, In % of w/w [1]	Solubility in Soybean oil, In g/g of oil [1]	mortality at 10 ppm [2]	mortality at 100 ppm [2]	mortality at 1000 ppm [2]	pest or weed control at 1000 µg/mL [2]	mortality at 10 ppm [3]	mortality at 100 ppm [3]	mortality at 1000 ppm [3]	mortality at 100 ppm [4]	mortality at 300 ppm [4]	mortality at 10 ppm [5]	mortality at 100 ppm [5]	mortality at 1000 ppm [5]	mortality at 10 ppm [4]
CC1(C)CN=C(NN=C(C=Cc2ccc(C(F)(F)F)cc2)C=Cc2ccc(C(F)(F)F)cc2)NC1	0.1 % of w/w	0.001 g/g of oil													
CCCCCCCCCCCCCCCC(=O)N1CC(C)(C)CN=C1NN=C(C=Cc1ccc(C(F)(F)F)cc1)C=Cc1ccc(C(F)(F)F)cc1 [R1=CF3, R3=n-C15 H31]			0%	100%	100%	80%	0%	60%	100%	0 to 40%	86 to 95%	0%	30%	100%	
CC(=O)N1CC(C)(C)CN=C1NN=C(C=Cc1ccc(Cl)cc1)C=Cc1ccc(Cl)cc1 [R1=Cl, R3=CH3]				100%	100%		0%	100%	100%	100%		0%	100%	100%	0 to 40%
CC(=O)N1CC(C)(C)CN=C1NN=C(C=Cc1ccc(C(F)(F)F)cc1)C=Cc1ccc(C(F)(F)F)cc1 [drawing 31]	0.3 % of w/w	0.003 g/g of oil													
CC1(C)CN=C(NN=C(C=Cc2ccc(C(F)(F)F)cc2)C=Cc2ccc(C(F)(F)F)cc2)N(C(=O)c2ccccc2)C1 [drawing 32]	0.4 % of w/w	0.004 g/g of oil													
CCCCCCCCCCCCCCCC(=O)N1CC(C)(C)CN=C1NN=C(C=Cc1ccc(C(F)(F)F)cc1)C=Cc1ccc(C(F)(F)F)cc1 [drawing 33]	2.0 % of w/w	0.02 g/g of oil													
CC1(C)CN=C(NN=C(C=Cc2ccc(C(F)(F)F)cc2)C=Cc2ccc(C(F)(F)F)cc2)N(C(=O)c2ccccc2)C1 [drawing 35]			0%	100%	100%	100%	0%	100%	100%	0 to 40%		0%	100%	100%	

From patent US4152436A, “Acylated pentadienone hydrazone, method for preparing the same, and use as fire ant control agents” (American Cyanamid Company, priority 1978, dated 1979)
